Test results as given in ChEMBL document CHEMBL1201862, “PubChem BioAssay data set” (2004).
Blank lines part the entries; values can stand above or below the compound they belong to. Activity calls are given as the source filed them.

Columns and labels:
Troponin, cardiac muscle = Troponin, cardiac muscle (Homo sapiens, UniProt P19429+P45379+P63316); assay: Fluorescence-based biochemical high throughput dose response assay for activators of the calcium sensitivity of cardiac Regulated Thin Filaments (RTF). [Related pubchem assays (depositor defined):AID493008, AID493018, AID504382, AID504383]; format: protein-complex assay
T-cell = assay: inhibitors of CD8+ T cell–vesicle binding, dose response, mouse 2C CD8+ T cells, flow cytometry (AID 485284); format: functional
Cannabinoid receptor 2 [1] = target: T1, Cannabinoid receptor 2 (Homo sapiens, UniProt P34972); assay: SAR analysis of antagonists of the Cannabinoid Receptor 2 using an Image-Based Assay - Set 2. [Related pubchem assays (depositor defined):AID1961, AID1965]; format: functional
Cannabinoid receptor 1 [2] = target: T2, Cannabinoid receptor 1 (Homo sapiens, UniProt P21554); assay: SAR analysis of antagonists of the Cannabinoid Receptor 1 using an Image-Based Assay - Set 3. [Related pubchem assays (depositor defined):AID1961, AID1965]; format: functional
[3] = target: T3, G-protein coupled receptor 35 (Homo sapiens, UniProt Q9HC97); assay: SAR analysis of Antagonists of the GPR35 Receptor using an Image-Based Assay - Set 4. [Related pubchem assays (depositor defined):[…]]; format: functional
Cannabinoid receptor 2 [4] = target: T1, Cannabinoid receptor 2; assay: SAR analysis of agonists of the Cannabinoid Receptor 2 using an Image-Based Assay - Set 2. [Related pubchem assays (depositor defined):AID1961, AID1965]; format: functional
[5] = target: T3, G-protein coupled receptor 35; assay: SAR analysis of Agonists of the GPR35 Receptor using an Image-Based Assay - Set 3. [Related pubchem assays (depositor defined):AID1961, AID1965]; format: functional
Cannabinoid receptor 1 [6] = target: T2, Cannabinoid receptor 1; assay: SAR analysis of agonists of the Cannabinoid Receptor 1 using an Image-Based Assay - Set 3. [Related pubchem assays (depositor defined):AID1961, AID1965]; format: functional
[7] = target: G-protein coupled receptor 55 (Homo sapiens, UniProt Q9Y2T6); assay: SAR analysis of selective Agonists of GPR55 using an Image-Based Assay - Set 2. [Related pubchem assays (depositor defined):AID1961, AID1965]; format: functional
Mu-type opioid receptor = Mu-type opioid receptor (Homo sapiens, UniProt P35372); assay: SAR Analysis of Antagonists of the MOR Receptor using an Image-Based Assay - Set 3. [Related pubchem assays (depositor defined):AID1777, AID1785, AID1786, AID1966, AID2133, AID2136, AID2284, AID2285, AID2420]; format: functional
[8] = target: T4, Kappa-type opioid receptor (Homo sapiens, UniProt P41145); assay: SAR analysis of small molecule antagonists of the kappa opioid receptor via a luminescent beta-arrestin assay - Set 3. [Related pubchem assays (depositor defined):AID1777, AID1778, AID1785, AID1786, AID1966, AID2133, AID2136, AID2285, AID2495]; format: functional
[9] = target: T4, Kappa-type opioid receptor; assay: SAR analysis of Antagonists of the Kappa Opioid Receptor (KOR) using an Image-Based Assay - Set 4. [Related pubchem assays (depositor defined):AID1777, AID1785]; format: functional
[10] = target: Delta-type opioid receptor (Homo sapiens, UniProt P41143); assay: SAR Analysis of Antagonists of the DOR Receptor using an Image-Based Assay - Set 3. [Related pubchem assays (depositor defined):AID1777, AID1785]; format: functional;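 also: U2OS cells expressing DOR1 and beta-arrestin GFP stimulated with 100 nM SNC80; imaging of GFP-tagged beta-arrestin moving into spots after receptor activation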
Hexokinase = Hexokinase (Trypanosoma brucei, UniProt Q38C41); assay: Confirmation assay for inhibitors of Trypanosoma brucei hexokinase 1-Analogue-first series. [Related pubchem assays (depositor defined):AID1430, AID1632, AID2516, AID2560, AID2579, AID2600, AID449725, AID492951]; format: functional
Chain of Hexokinase (Q38C41 whole entry): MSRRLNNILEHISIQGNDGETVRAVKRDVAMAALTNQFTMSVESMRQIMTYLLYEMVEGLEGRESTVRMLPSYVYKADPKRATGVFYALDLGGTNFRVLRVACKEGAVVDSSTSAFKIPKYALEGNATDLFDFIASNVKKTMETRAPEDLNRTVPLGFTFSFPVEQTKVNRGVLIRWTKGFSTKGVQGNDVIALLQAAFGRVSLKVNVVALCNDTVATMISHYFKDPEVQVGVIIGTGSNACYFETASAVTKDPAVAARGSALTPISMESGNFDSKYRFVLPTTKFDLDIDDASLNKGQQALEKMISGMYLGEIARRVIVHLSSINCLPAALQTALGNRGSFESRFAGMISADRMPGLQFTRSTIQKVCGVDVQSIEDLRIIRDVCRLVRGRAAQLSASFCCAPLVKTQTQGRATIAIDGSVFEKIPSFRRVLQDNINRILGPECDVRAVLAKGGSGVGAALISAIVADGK

T2 sequence (P21554 whole entry): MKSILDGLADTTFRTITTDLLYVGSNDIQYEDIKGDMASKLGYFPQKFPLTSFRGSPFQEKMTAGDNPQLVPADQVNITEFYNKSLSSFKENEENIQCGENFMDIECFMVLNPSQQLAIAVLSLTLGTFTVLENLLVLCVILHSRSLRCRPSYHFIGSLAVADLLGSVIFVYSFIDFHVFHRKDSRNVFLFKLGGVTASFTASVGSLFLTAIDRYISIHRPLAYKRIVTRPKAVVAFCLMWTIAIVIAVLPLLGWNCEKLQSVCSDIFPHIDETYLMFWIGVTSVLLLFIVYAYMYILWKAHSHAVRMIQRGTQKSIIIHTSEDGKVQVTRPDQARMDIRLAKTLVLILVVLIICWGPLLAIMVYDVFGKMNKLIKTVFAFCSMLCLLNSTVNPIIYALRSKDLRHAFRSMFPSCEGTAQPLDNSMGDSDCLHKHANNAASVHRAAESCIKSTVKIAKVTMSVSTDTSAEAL
T4 sequence (P41145 whole entry): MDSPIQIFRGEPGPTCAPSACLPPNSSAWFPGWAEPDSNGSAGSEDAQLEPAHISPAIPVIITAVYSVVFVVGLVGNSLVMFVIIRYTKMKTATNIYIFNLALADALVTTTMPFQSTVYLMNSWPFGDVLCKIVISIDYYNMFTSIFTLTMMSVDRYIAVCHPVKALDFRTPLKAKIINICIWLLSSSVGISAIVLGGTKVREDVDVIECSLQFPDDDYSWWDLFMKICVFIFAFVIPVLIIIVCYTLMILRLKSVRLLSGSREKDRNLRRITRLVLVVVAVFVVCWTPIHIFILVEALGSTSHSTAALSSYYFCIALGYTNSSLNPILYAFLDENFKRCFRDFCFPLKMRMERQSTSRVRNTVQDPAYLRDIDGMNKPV
T3 sequence (Q9HC97 whole entry): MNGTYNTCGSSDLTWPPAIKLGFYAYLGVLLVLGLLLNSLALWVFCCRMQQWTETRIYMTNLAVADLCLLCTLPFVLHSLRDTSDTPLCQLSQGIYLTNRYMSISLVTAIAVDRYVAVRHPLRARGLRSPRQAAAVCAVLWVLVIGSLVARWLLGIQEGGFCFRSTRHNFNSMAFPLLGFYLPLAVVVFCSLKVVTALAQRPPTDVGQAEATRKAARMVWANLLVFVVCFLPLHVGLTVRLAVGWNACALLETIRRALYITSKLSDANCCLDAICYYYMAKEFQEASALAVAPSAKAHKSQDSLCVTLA
T1 sequence (P34972 whole entry): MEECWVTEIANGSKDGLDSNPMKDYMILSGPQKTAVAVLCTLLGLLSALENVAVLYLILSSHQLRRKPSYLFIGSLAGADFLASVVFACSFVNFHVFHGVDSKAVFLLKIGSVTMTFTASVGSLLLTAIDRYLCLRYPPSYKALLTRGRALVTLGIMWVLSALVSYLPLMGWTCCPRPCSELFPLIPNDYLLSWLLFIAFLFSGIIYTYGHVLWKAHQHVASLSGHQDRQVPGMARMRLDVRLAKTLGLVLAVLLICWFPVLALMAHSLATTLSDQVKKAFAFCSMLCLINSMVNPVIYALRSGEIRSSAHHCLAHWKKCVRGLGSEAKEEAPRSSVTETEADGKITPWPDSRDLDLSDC
Chain of Mu-type opioid receptor (P35372 whole entry): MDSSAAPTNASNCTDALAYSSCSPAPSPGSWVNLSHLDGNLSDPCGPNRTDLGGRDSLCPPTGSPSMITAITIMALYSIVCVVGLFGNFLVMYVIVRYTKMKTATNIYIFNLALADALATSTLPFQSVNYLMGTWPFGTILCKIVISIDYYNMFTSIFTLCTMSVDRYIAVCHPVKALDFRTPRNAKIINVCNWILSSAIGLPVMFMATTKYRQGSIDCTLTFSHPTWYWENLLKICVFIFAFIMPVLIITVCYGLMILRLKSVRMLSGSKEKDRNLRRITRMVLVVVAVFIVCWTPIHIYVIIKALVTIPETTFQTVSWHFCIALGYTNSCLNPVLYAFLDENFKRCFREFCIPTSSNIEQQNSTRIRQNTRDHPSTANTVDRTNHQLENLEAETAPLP
Chain of G-protein coupled receptor 55 (Q9Y2T6 whole entry): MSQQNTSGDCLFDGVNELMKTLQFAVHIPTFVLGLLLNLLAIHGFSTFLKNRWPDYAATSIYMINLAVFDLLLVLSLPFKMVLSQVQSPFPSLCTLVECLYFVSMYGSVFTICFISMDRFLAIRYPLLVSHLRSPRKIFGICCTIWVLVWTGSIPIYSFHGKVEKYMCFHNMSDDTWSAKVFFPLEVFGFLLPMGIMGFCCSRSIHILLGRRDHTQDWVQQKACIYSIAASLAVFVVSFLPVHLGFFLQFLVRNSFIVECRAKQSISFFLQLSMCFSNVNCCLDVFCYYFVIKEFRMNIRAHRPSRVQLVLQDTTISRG
Chain of Delta-type opioid receptor (P41143 whole entry): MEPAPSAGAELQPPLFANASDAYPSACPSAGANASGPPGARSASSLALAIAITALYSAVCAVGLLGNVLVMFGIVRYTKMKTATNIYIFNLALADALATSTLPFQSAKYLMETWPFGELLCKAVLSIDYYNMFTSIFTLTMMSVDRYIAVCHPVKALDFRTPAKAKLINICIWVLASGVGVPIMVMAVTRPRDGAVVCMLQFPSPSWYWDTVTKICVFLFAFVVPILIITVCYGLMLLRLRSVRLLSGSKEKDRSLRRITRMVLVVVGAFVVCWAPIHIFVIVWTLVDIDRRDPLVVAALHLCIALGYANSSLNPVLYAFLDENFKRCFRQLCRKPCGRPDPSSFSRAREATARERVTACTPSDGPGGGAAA

SMILES: Cc1sc(NC(=O)CSc2nnc(C(C)C)n2C)c(C#N)c1C
EC50 (Troponin, cardiac muscle): > 71.5 µM (inactive)

SMILES: COc1ccc(S(=O)(=O)N2CCCCC2)cc1NC(=O)c1cnc(C)cn1
EC50 (T-cell): 0.558 µM (active)

SMILES: O=C(Nc1cc(Cl)ccc1C(=O)O)c1ccsc1
IC50 (Hexokinase): > 25 µM (inactive)

Next, values leading:

IC50 (Cannabinoid receptor 2 [1]): > 32 µM (inactive)
IC50 (Cannabinoid receptor 1 [2]): > 32 µM (inactive)
IC50 [3]: > 32 µM (inactive)
EC50 (Cannabinoid receptor 2 [4]): > 32 µM (inactive)
EC50 [5]: > 32 µM (inactive)
EC50 (Cannabinoid receptor 1 [6]): > 32 µM (inactive)
EC50 [7]: > 32 µM (inactive)
SMILES: Cc1cccc(N2CCN(C(=O)c3cccc(S(=O)(=O)N4CCCCC4)c3)CC2)c1C

IC50 (Mu-type opioid receptor): 22.5 µM (inactive)
IC50 [8]: 4.95 µM (active)
IC50 [9]: 2.56 µM (active)
IC50 [10]: > 32 µM (inactive)
SMILES: Cc1ccnc2c1n1cccc1c(=O)n2CC(=O)NCCCN1CCN(c2ccccc2)CC1
